We go through 21 molecules from publication PMC11123961, “Design, Synthesis, and Biological Evaluation of the Quorum-Sensing Inhibitors of Pseudomonas aeruginosa PAO1” (Molecules, 2024).

For experiment [1], the system named is C. violaceum CV026 QS. Further details: method as in earlier work. Conditions: lead compound, value of Zhao; cited from earlier work.
The subject of experiment [2] is C. violaceum CV026 QS. Description: Half-maximal inhibitory concentration against C. violaceum CV026 QS (suppression of violacein production). Format: cell-based. The following applies: Chromobacterium violaceum; C6-HSL-induced violacein production, 12 h; mean ± SD of three independent tests; read-out: IC50, anti-CV026 QS activity. The source says: In the exploration of the QS inhibitions, C. violaceum CV026, a mini-T5 mutant of C. violaceum ATCC31532, is frequently employed as a biosensor strain. Because C. violaceum CV026 lacks the CviI gene, which directs the synthesis of AHLs, it is unable to manufacture violacein on its own. The violacein reaction can be induced in C. violaceum CV026 by adding exogenous C6-HSL [27]. As a result, the violacein reaction in C. violaceum CV026 can be used to assess the compounds’ suppression of QS, as used in this investigation.
3.2.2. The Half-Maximal Inhibitory Concentration (IC50) of Compounds against C. violaceum CV026 QS [36]
Subsequently, the log phase of C. violaceum CV026 was placed in a 12-well plate (2 mL/well) after being diluted 10-fold with fresh LB medium. The experimental group received 15 μL of the diluted inducer C6-HSL (0.125 mM), and 8 μL of each dilution gradient compound was added to each well, while the positive control group received 8 μL of C10-HSL, and the blank control group received 8 μL of LB medium. The plates were incubated at 30 °C and 130 rpm for 12 h. After centrifuging 1 mL of the culture for 10 min at 11,255 g, the supernatant was discarded. After dissolving the violacein with 500 μL of DMSO, the mixture was centrifuged once more at 11,255 g for 10 min. In order to measure the absorbance at 585 nm, 200 μL of the upper pigment was added to a 96-well plate. The IC50 was calculated using GraphPad Prism 5 according to the formula (absorbance at 585 nm of the test concentration/the absorbance of the control at 585 nm × 100%).

In experiment [3] the test system is P. aeruginosa PAO1 biofilms. Description: Biofilm quantification, crystal violet assay. In kind it is cell-based, Pseudomonas aeruginosa. Conditions: for inhibition at 20.3125 µM / inhibition at 40.625 µM / inhibition at 81.25 µM / inhibition at 162.5 µM / inhibition at 325 µM: Pseudomonas aeruginosa, PAO1, 20 h, read-out: Inhibition ratio of biofilm; for inhibition at 20.3125 µM: concentration 20.3125 (unit not given in Table S1; μM in method); for inhibition at 40.625 µM: concentration 40.625 (unit not given in Table S1; μM in method); for inhibition at 81.25 µM: concentration 81.25 (unit not given in Table S1; μM in method); for inhibition at 162.5 µM: concentration 162.5 (unit not given in Table S1; μM in method); for inhibition at 325 µM: concentration 325 (unit not given in Table S1; μM in method). The protocol: 3.2.3. Biofilm Quantification Assays
The crystal violet assay was used to quantitatively analyze the biofilm, as previously described. P. aeruginosa PAO1 log phase was diluted 100 times with fresh LB medium and incubated for 3.5 h at 37 °C and 150 rpm. After that, the P. aeruginosa PAO1 bacterial culture was added to the 96-well plate. P. aeruginosa PAO1 bacterial culture in 90 μL was added to the experimental group, and 10 μL of the test compound at a final concentration of 325 μM, 162.5 μM, 81.25 μM, 40 μM, 20 μM, and 10 μM. Each well received 100 μL of bacterial culture for the control group and 100 μL of fresh LB medium for the blank group. After 20 h of incubation at 37 °C, the bacterial culture was removed from the 96-well plate, and it was dried after three PBS washes. Each well received […] of 0.1% crystal violet (CV) for a 15 min staining period. Each well was washed three times with PBS after the CV was removed. Lastly, each well received 150 μL of 33% glacial acetic acid, and a Biotek multi-function microplate reader was used to measure the absorbance value at 595 nm. The biofilm inhibition rate was calculated as follows = (OD595 blank − OD595 sample)/OD595 blank × 100%.

The subject of experiment [4] is wildtype Caenorhabditis elegans N2 infected with P. aeruginosa PAO1. Briefly: C. elegans survival assay. The following applies: after 48 h; agent alone: Y-31 162.5 μM, Tob 0.25 μg/mL. Format: in vivo. From the text:
3.2.7. C. elegans Survival Assay
The negative control was the PGS agar plate coated with E. Coli OP50. Next, 50 wildtype C. elegans N2 strain-synchronized nematodes (L4 stage) were chosen and placed onto the plates. […] When the nematodes in the study were immobile, they were deemed dead. The number of nematodes that survived was tabulated to generate a survival curve.

Experiment [5] deals with C. violaceum CV026 QS. Description: Half-maximal inhibitory concentration against C. violaceum CV026 QS (suppression of violacein production). In kind it is cell-based. Conditions: qualitative preliminary screening.

SMILES strings stand for the structures. Read-outs that look alike come from different tables or passages of the source.

One may read the IC50 as the concentration that gives 50% inhibition. `O=C(NN1CCOC1=O)c1ccccc1` [AOZ-1]: in experiment [1], the IC50 is greater than 200 µM.
As for `CCCCCCCCCC(=O)N[C@H]1CCOC1=O` [C10-HSL, reference compound], in experiment [2], the IC50 amounted to 0.15 ± 0.024 µM. In experiment [3], the inhibition at 20.3125 µM was -4.35%, the inhibition at 40.625 µM came to 2.25%, the inhibition at 81.25 µM came out at 0.25% and the inhibition at 162.5 µM worked out at 6.3%. Moreover, the inhibition at 325 µM in experiment [3] was -18.8%. Also, in experiment [3] (crystal violet assay), the “Effect on the biofilm of P. aeruginosa PAO1” value is “no significant inhibitory effect”.
As for `NC[C@H]1O[C@H](O[C@H]2[C@H](O)[C@@H](O[C@H]3O[C@H](CO)[C@@H](O)[C@H](N)[C@H]3O)[C@H](N)C[C@@H]2N)[C@H](N)C[C@@H]1O` [Tob, Tobramycin, reference compound], the “Improvement of the survival rate of infected nematodes (average)” value in experiment [4] worked out at 63.33%.
`O=C(CCCOc1ccc2ccncc2c1)NN1CCOC1=O` [Y-1]: in experiment [2], the 50% inhibitory concentration (IC50) turned out to be 199 ± 13.9 µM. Moreover, the “C. violaceum CV026 QS inhibitory activity (first assessment)” value in experiment [5] is “inhibited”.
As for `COc1ccc(OCCCC(=O)NN2CCOC2=O)cc1` [Y-3], the IC50 in experiment [2] is 208 ± 7.26 µM. Also, the “C. violaceum CV026 QS inhibitory activity (first assessment)” value in experiment [5] is listed as “inhibited”.
As to `O=C(CCCCOc1ccc(Br)cc1)NN1CCCOC1=O` [Y-4], the IC50 in experiment [2] was greater than 260 µM.
Same read-out and setting: for `O=C(CCCOc1ccc(-c2ccccc2)cc1)NN1CCOC1=O` [Y-5] the value was 125 ± 16.1 µM.
On the same count and under the same terms, to `O=C(CCCOc1ccc(Br)cc1)NN1CCCOC1=O` [Y-6] belongs greater than 260 µM.
`O=C(CCCOc1ccc(Br)nc1)NN1CCOC1=O` [Y-9]: the IC50 in experiment [2] turned out to be 168 ± 7.28 µM. For the same molecule, the “C. violaceum CV026 QS inhibitory activity (first assessment)” value in experiment [5] is recorded as “inhibited”.
With `O=C(CCCOc1cnc(Br)cn1)NN1CCOC1=O` [Y-15], in experiment [2], the IC50 was determined as 91.3 ± 3.02 µM. Also, the “C. violaceum CV026 QS inhibitory activity (first assessment)” value in experiment [5] was “inhibited”. For the same molecule, in experiment [3], the inhibition at 20.3125 µM stood at 6.73%, the inhibition at 40.625 µM was 27%, the inhibition at 81.25 µM stood at 36.8% and the inhibition at 162.5 µM is 33.9%. Besides, the inhibition at 325 µM in experiment [3] is 32.1%.
On to `CCCCc1ccc(OCCCC(=O)NN2CCOC2=O)cc1` [Y-17], for which the IC50 in experiment [2] is greater than 260 µM.
For the molecule `CC(C)(C)Oc1ccc(OCCCC(=O)NN2CCOC2=O)cc1` [Y-18], the IC50 in experiment [2] is greater than 260 µM.
Still for that read-out and setting: for `CCc1ccc(OCCCC(=O)NN2CCOC2=O)cc1` [Y-19] the value was 153 ± 8.78 µM.
Regarding `O=C(CCCOc1ccc(C(F)(F)F)cc1)NN1CCOC1=O` [Y-25], the IC50 in experiment [2] came out at 62.6 ± 3.27 µM. The “C. violaceum CV026 QS inhibitory activity (first assessment)” value in experiment [5] was “inhibited”. Further, in experiment [3], the inhibition at 20.3125 µM was 18.8%, the inhibition at 40.625 µM is 32.2%, the inhibition at 81.25 µM was 33.4% and the inhibition at 162.5 µM worked out at 39.9%. For the same molecule, in experiment [3], the inhibition at 325 µM was determined as 32.2%.
Turning to `O=C(CCCOc1ccc(I)cc1)NN1CCOC1=O` [Y-26], the IC50 in experiment [2] is 27.6 ± 1.25 µM. For the same molecule, in experiment [5], the “C. violaceum CV026 QS inhibitory activity (first assessment)” value is given as “inhibited”. In addition, in experiment [3], the inhibition at 20.3125 µM was found to be 2.17%, the inhibition at 40.625 µM was found to be 33.5%, the inhibition at 81.25 µM came out at 42.5% and the inhibition at 162.5 µM was found to be 44.6%. For the same molecule, the inhibition at 325 µM in experiment [3] is 38.7%.
With `O=C(CCCOc1ccccc1)NN1CCOC1=O` [Y-28], the IC50 in experiment [2] is 232 ± 5.84 µM. Moreover, the “C. violaceum CV026 QS inhibitory activity (first assessment)” value in experiment [5] is listed as “inhibited”.
In the case of `O=C(CCCOc1ccc2ccccc2c1)NN1CCOC1=O` [Y-29], the IC50 in experiment [2] stood at 26.1 ± 2.52 µM. For the same molecule, in experiment [5], the “C. violaceum CV026 QS inhibitory activity (first assessment)” value was “inhibited”. Further, in experiment [3], the inhibition at 20.3125 µM came out at 9.51%, the inhibition at 40.625 µM stood at 32.7%, the inhibition at 81.25 µM stood at 34.7% and the inhibition at 162.5 µM was found to be 40.9%. For the same molecule, the inhibition at 325 µM in experiment [3] came to 9.07%.
For the molecule `O=C(CCCOc1cccc2ccccc12)NN1CCOC1=O` [Y-37], the IC50 in experiment [2] is 102 ± 4.36 µM. For the same molecule, in experiment [3], the inhibition at 20.3125 µM turned out to be 15.3%, the inhibition at 40.625 µM came out at 35.1%, the inhibition at 81.25 µM was 36.4% and the inhibition at 162.5 µM amounted to 28.7%. The inhibition at 325 µM in experiment [3] worked out at 18.2%.
For `CC(C)c1ccc(OCCCC(=O)NN2CCOC2=O)cc1` [Y-38], the IC50 in experiment [2] was greater than 260 µM.
Consider `O=C(CCCSc1ccc(Br)cc1)NN1CCOC1=O` [Y-39], for which, in experiment [2], the IC50 turned out to be 47.4 ± 1.74 µM. Moreover, in experiment [3], the inhibition at 20.3125 µM was found to be 12.9%, the inhibition at 40.625 µM stood at 23.4%, the inhibition at 81.25 µM was 28.4% and the inhibition at 162.5 µM was 24.9%. The inhibition at 325 µM in experiment [3] was determined as 21.2%.
Turning to `Cc1ccc(OCCCC(=O)NN2CCOC2=O)c(C)c1` [Y-40], the IC50 in experiment [2] is 180.5 ± 1.77 µM.
